Source: ChEMBL document CHEMBL1201862, “PubChem BioAssay data set” (2004)
The source made the active and inactive calls.

Columns and labels:
[1] = molecular target: Induced myeloid leukemia cell differentiation protein Mcl-1 (Homo sapiens, UniProt Q07820); format: functional
Protein Rev = Protein Rev (Human immunodeficiency virus type 1 group M subtype B (isolate HXB2)(HIV-1), UniProt P04618); assay: inhibitors of Rev binding to RRE RNA, dose response, biochemical, fluorescence polarization, HIV-1 (AID 434976); set-up: species or system Human immunodeficiency virus 1
[2] = molecular target: Female germline-specific tumor suppressor gld-1 (Caenorhabditis elegans, UniProt Q17339); assay: inhibitors of GLD-1 binding to TGE RNA, dose response, biochemical, fluorescence polarization, C. elegans (AID 2802);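 further: fluorescence polarization of labeled TGE RNA bound by purified gld-1 protein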
X-box-binding protein 1 = X-box-binding protein 1 (Homo sapiens, UniProt P17861); format: functional, Cricetulus griseus;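 further: confirmatory dose-response counter-screen serving a CHOP assay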
Chain of X-box-binding protein 1 (P17861 whole entry): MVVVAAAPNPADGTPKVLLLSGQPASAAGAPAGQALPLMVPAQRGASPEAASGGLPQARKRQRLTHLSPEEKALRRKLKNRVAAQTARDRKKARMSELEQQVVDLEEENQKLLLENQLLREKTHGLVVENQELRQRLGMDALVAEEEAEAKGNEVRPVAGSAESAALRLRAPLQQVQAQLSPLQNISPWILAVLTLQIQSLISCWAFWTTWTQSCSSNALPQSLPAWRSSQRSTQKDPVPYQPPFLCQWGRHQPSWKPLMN

Coagulation factor XII = molecular target: T1, Coagulation factor XII (Homo sapiens, UniProt P00748); assay: FXIIa inhibitor potency, concentration-response, biochemical (AID 716); format: functional
T1 sequence (P00748 whole entry): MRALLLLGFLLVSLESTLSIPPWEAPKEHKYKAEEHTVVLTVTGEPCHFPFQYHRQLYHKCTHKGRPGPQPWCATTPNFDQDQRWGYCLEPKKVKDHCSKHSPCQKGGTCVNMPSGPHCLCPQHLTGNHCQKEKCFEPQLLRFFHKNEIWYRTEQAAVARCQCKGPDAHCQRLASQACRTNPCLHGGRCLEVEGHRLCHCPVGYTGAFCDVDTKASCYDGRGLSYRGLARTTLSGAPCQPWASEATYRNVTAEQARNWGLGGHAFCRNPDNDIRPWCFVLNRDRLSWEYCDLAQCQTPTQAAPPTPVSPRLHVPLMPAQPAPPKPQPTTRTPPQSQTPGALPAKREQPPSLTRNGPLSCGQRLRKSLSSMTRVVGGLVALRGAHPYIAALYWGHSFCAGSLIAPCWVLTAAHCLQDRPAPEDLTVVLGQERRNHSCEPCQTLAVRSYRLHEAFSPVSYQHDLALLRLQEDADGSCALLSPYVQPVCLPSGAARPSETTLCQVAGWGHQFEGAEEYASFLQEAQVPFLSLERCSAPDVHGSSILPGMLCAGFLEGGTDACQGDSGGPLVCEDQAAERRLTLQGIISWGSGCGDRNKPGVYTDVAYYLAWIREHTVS

HEK293 [3] = assay: cells; format: functional, cell-based; conditions: Homo sapiens
HEK293 [4] = assay: NOD2 signaling inhibitors in MDP-stimulated cells, cell-based, uHTS, luminescence (AID 2001); format: functional; conditions: Homo sapiens
[5] = molecular target: Nucleotide-binding oligomerization domain-containing protein 2 (Homo sapiens, UniProt Q9HC29); assay: NOD2 signaling inhibitors, cell-based, luminescence, uHTS, HEK293 (AID 1566); format: functional
Chain of Nucleotide-binding oligomerization domain-containing protein 2 (Q9HC29 whole entry, the tested form may be a part): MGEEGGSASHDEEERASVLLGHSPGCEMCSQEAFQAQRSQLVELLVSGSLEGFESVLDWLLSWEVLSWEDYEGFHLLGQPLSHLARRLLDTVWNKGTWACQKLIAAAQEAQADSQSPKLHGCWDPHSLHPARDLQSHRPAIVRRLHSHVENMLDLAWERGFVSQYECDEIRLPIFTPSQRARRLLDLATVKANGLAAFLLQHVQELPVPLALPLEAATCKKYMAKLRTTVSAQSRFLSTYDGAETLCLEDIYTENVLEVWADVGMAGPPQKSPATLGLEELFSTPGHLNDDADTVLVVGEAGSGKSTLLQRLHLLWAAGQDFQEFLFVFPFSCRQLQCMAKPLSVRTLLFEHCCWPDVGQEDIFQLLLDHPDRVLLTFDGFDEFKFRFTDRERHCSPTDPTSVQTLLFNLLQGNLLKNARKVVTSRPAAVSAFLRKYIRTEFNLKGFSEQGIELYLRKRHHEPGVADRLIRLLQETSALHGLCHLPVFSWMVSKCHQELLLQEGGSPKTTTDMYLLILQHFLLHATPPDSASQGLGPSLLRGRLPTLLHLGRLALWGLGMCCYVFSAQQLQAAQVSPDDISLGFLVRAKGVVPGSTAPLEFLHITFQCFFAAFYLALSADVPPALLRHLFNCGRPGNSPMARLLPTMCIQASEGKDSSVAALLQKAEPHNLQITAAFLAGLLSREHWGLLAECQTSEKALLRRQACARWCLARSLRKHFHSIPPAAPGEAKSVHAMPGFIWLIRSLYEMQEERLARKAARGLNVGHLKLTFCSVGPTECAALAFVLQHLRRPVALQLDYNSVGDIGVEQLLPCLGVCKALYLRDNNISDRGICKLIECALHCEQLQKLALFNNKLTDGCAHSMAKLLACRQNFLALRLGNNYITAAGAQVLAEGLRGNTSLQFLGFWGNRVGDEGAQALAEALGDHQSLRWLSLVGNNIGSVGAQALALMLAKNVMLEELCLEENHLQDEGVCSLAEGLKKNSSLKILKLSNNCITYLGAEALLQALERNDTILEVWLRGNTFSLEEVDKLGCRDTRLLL

HEK293 [6] = assay: NOD1 signaling inhibitors, primary screen, cell-based, luminescence, uHTS (AID 1578); format: functional; conditions: Homo sapiens
HEK293 [7] = assay: cells; format: functional, cell-based; conditions: Homo sapiens; remark: listed apart in the source
HEK293 [8] = assay: cells; format: functional, cell-based; conditions: Homo sapiens; remark: listed apart in the source
Genome polyprotein = Genome polyprotein (dengue virus type 2, UniProt P29990); assay: Dengue-2 NS5 methyltransferase inhibitors, primary screen, biochemical, confirmation dose response (AID 588689); format: functional
[9] = molecular target: G-protein coupled receptor 55 (Homo sapiens, UniProt Q9Y2T6); assay: GPR55 agonists via beta-arrestin recruitment, primary screen, imaging, U2OS cells, beta-arrestin-GFP redistribution (AID 1961); format: functional
Chain of G-protein coupled receptor 55 (Q9Y2T6 whole entry): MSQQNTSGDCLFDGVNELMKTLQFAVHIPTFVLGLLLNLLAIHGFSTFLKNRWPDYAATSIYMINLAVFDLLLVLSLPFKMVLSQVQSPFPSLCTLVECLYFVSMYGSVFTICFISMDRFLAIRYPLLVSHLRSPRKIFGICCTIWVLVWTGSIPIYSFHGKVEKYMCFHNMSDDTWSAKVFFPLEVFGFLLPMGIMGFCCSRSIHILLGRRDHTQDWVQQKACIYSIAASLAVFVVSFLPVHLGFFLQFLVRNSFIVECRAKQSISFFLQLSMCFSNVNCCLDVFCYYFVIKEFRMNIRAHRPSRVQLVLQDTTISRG

[10] = microbe, parasite or virus in culture; format: functional; conditions: Mycobacterium tuberculosis
[11] = growth suppression of beta-catenin-knockout colon cells, dose response, cell-based, HCT116, human colon tumor (AID 1045); format: functional;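 further: HCT116 colon tumor cells with beta catenin knocked out; cells exposed to compound for 60 hours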
[12] = growth suppression of PTEN-null colon cells, dose response, cell-based, HCT116 PTEN knockout (AID 1047); format: functional;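 further: HCT116 colon tumor cells with PTEN knocked out; cells exposed to compound for 60 hours before readout; potency for loss of cell viability measured by luminescence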
Nonstructural protein 1 = Nonstructural protein 1 (Influenza A virus, UniProt Q194T2); format: functional, Influenza A virus (A/California/07/2009(H1N1))
Perilipin-1/ABHD5 = Perilipin-1/ABHD5 (Homo sapiens, UniProt O60240+Q8WTS1); assay: Luminescence-based biochemical high throughput dose response assay for inhibitors of the interaction of the lipase co-activator protein, abhydrolase domain containing 5 (ABHD5) with perilipin-1 (PLIN1) (2K validation set). [Related pubchem assays (depositor defined):AID493027, AID493057]
Chain of Perilipin-1/ABHD5 (Q8WTS1 whole entry, the tested form may be a part): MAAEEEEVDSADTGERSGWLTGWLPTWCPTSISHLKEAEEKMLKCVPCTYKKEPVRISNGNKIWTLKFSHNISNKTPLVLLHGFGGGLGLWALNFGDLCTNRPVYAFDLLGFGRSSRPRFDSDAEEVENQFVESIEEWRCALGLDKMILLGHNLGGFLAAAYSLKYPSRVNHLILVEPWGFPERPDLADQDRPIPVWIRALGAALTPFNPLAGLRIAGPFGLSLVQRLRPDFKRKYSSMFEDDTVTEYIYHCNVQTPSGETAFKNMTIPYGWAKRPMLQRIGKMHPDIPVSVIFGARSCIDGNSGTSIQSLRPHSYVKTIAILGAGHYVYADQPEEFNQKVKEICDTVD
Chain of Perilipin-1/ABHD5 (O60240 whole entry, the tested form may be a part): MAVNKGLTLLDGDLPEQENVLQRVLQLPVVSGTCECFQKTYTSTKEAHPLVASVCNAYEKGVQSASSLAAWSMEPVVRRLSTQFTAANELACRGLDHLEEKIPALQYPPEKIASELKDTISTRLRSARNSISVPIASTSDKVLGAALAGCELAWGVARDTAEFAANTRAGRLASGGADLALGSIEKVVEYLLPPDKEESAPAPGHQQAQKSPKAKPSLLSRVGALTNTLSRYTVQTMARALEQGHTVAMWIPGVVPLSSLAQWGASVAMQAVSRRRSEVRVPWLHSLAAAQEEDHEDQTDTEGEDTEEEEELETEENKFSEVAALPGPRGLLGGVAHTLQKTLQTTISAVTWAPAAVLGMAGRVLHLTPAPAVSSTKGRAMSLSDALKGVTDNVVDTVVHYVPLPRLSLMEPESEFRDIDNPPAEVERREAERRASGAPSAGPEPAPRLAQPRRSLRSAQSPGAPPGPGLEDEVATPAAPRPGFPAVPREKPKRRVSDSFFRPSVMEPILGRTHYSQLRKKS

[13] = molecular target: 1-acylglycerol-3-phosphate O-acyltransferase ABHD5/Perilipin-5 (Homo sapiens, UniProt Q00G26+Q8WTS1); assay: Luminescence-based biochemical high throughput dose response assay for inhibitors of the interaction of the lipase co-activator protein, abhydrolase domain containing 5 (ABHD5) with perilipin-5 (MLDP; PLIN5) (2K validation set). [Related pubchem assays (depositor defined):AID493035, AID493241]
Chain of 1-acylglycerol-3-phosphate O-acyltransferase ABHD5/Perilipin-5 (Q00G26 whole entry, the tested form may be a part): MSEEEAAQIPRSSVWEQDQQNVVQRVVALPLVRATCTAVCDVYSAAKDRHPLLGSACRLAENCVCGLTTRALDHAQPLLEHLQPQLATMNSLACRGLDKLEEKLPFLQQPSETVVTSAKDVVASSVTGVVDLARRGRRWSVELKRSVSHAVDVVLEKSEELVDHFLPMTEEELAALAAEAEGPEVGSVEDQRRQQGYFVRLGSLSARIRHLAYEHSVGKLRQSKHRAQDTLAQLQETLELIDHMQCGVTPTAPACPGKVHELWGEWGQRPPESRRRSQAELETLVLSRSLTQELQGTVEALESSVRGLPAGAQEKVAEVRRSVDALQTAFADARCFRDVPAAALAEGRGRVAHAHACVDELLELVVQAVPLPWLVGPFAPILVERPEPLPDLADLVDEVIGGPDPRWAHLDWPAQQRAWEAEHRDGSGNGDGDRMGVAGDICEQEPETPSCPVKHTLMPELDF
Chain of 1-acylglycerol-3-phosphate O-acyltransferase ABHD5/Perilipin-5 (Q8WTS1 whole entry, the tested form may be a part): as the sequence (Q8WTS1 whole entry, the tested form may be a part) above

[14] = molecular target: Polyadenylate-binding protein 1 (Homo sapiens, UniProt P11940); assay: PABP inhibition in translation initiation, SAR follow-up (AID 435018); format: functional
Chain of Polyadenylate-binding protein 1 (P11940 whole entry): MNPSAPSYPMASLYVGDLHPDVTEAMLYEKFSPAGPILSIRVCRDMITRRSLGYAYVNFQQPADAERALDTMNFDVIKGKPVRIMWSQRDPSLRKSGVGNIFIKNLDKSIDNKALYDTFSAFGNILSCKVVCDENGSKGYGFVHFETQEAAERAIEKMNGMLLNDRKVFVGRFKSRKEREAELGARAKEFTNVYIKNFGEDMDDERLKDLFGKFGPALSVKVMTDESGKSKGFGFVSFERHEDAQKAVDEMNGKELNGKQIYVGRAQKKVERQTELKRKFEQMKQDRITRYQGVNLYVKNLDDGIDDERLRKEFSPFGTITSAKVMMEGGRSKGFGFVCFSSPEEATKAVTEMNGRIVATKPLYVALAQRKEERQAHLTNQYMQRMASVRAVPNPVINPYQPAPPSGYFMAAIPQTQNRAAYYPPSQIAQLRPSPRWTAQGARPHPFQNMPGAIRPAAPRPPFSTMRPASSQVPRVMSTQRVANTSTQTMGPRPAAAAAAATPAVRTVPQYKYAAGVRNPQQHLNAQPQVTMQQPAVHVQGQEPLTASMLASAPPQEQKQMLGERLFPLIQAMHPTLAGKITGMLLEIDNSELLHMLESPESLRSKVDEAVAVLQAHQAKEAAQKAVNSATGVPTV

[15] = molecular target: Eukaryotic translation initiation factor 4H (Homo sapiens, UniProt Q15056); assay: eIF4H inhibition in translation initiation, SAR follow-up (AID 435011); format: functional
Bcl-2-like protein 10 = molecular target: T2, Bcl-2-like protein 10 (Homo sapiens, UniProt Q9HD36); assay: displacers of TR3 peptide from Bcl-B, primary screen, selectivity assay for Bfl-1 inhibitor project, biochemical, fluorescence polarization, FITC-TR3 peptide (AID 748);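 further: fluorescence polarization from a fluorescein-labelled TR3 peptide binding purified Bcl-B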
T2 sequence (Q9HD36 whole entry): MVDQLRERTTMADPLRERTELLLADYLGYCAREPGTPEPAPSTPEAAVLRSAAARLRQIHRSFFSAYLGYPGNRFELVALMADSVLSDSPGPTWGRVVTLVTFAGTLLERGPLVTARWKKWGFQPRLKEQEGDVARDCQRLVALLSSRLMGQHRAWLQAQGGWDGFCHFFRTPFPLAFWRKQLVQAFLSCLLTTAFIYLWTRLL

[16] = inhibitors of intracellular T. cruzi replication, confirmation, NIH3T3 host cells, beta-gal luminescence (AID 2044); format: functional, cell-based;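 further: intracellular parasites grown in NIH/3T3 mouse fibroblasts as host cells; luminescent beta-galactosidase reporter signal from transgenic T. cruzi replicating inside host cells; inhibitors lower the luminescence signal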
[17] = cytotoxicity toward NIH3T3 fibroblasts, dose response, counter-screen, cell-based, ATP luminescence, mouse fibroblasts (AID 2010); format: functional;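 further: cells exposed to compound for about 90 hours before reading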
[18] = molecular target: T3, Corticotropin-releasing factor receptor 2/Corticotropin-releasing factor-binding protein (Homo sapiens, UniProt P24387+Q13324); assay: activators of CRF receptor 2 with binding protein – uHTS hits, confirmation (AID 602473); format: functional; conditions: read-out: EC50_Mean
T3 sequence (Q13324 whole entry): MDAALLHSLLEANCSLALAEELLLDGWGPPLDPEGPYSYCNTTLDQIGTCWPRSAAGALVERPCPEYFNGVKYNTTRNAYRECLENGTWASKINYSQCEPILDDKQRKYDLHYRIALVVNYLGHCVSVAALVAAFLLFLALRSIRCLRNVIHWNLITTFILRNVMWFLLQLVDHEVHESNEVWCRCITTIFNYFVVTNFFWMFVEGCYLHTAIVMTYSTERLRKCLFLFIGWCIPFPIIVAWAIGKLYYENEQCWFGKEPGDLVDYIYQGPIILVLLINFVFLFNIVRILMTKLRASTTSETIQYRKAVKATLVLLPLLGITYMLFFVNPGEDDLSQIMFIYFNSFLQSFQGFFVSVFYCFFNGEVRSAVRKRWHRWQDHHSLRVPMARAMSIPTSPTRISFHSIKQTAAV
T3 sequence (P24387 whole entry): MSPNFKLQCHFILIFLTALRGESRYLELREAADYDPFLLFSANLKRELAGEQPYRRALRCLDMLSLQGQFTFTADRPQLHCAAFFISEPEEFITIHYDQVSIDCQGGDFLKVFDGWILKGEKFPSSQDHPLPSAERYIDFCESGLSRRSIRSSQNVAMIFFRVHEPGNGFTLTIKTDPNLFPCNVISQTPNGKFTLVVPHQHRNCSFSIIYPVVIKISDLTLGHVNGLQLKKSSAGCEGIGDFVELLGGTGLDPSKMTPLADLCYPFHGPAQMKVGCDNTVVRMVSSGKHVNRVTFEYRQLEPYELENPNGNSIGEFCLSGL

CAAX prenyl protease 2 = CAAX prenyl protease 2 (Saccharomyces cerevisiae S288c, UniProt Q03530); format: biochemical
Cytochrome P450 2C9 = Cytochrome P450 2C9 (Homo sapiens, UniProt P11712)
Chain of Cytochrome P450 2C9 (P11712 whole entry): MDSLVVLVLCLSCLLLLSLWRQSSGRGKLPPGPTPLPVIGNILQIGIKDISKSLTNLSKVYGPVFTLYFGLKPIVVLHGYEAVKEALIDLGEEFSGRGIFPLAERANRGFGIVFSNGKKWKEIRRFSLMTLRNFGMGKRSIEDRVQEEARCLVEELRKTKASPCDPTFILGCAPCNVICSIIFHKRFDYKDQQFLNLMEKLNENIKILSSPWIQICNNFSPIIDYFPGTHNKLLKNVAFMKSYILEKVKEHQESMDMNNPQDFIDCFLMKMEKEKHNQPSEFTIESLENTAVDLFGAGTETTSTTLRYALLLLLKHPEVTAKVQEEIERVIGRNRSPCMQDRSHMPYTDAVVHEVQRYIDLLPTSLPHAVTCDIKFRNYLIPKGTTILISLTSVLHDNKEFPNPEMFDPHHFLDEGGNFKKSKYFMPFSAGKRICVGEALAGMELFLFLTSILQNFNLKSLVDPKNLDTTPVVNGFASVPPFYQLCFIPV

Streptococcus = assay: Group A Streptococcus viability loss, dose response, counter-screen for streptokinase expression inhibitor project, luminescence, BacTiterGlo (AID 1915); format: functional, organism-based;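 further: potency for reduction of bacterial viability or growth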
Streptokinase A = molecular target: T4, Streptokinase A (Streptococcus pyogenes serotype M1, UniProt P10520); assay: S. pyogenes streptokinase expression inhibitors, potency, dose response, plasminogen activation absorbance, OD405 (AID 1914); format: functional, Streptococcus pyogenes M1 GAS;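 further: secreted streptokinase activity via plasminogen activation per viability signal from cell pellet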
T4 sequence (P10520 whole entry): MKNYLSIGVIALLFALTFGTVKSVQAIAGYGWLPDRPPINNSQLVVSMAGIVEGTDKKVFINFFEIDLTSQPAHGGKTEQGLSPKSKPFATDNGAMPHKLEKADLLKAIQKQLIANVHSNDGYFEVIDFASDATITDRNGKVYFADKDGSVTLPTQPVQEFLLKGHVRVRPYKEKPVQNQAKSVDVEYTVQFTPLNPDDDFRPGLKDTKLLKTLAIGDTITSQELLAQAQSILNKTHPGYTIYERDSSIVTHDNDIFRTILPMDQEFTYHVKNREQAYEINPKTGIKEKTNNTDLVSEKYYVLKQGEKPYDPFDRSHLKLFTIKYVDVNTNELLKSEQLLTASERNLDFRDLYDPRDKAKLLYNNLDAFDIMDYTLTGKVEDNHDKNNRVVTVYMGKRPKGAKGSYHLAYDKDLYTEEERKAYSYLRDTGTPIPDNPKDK

[19] = tested on: Streptococcus sp. 'group A'; assay: growth inhibition of control SK(-) GAS strain, dose response, counter-screen for streptokinase expression inhibitor project, luminescence, kanamycin, BacTiterGlo, confirmation (AID 1900); format: functional, organism-based
Cytochrome P450 2D6 = Cytochrome P450 2D6 (Homo sapiens, UniProt P10635);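 further: CYP2D6 member of a cytochrome P450 panel assay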
Chain of Cytochrome P450 2D6 (P10635 whole entry): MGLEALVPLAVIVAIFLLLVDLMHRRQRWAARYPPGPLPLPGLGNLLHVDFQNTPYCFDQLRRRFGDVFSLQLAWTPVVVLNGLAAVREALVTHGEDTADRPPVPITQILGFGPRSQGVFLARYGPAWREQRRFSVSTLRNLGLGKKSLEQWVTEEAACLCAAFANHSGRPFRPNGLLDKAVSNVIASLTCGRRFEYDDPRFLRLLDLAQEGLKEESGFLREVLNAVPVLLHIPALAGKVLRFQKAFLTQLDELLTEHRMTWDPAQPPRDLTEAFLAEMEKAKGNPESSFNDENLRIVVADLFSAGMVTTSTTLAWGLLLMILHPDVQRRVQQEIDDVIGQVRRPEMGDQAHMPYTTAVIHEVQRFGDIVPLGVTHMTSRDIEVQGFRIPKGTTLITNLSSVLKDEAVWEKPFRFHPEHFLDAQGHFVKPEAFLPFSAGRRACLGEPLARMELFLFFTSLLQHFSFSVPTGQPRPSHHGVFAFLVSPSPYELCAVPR

Prothrombin = Prothrombin (Homo sapiens, UniProt P00734); assay: Thrombin 1536 HTS Dose Response Confirmation. [Related pubchem assays: 1046 (Thrombin 1536 HTS; hits were confirmed in this assay)]; format: functional
[20] = molecular target: E3 ubiquitin-protein ligase XIAP (Homo sapiens, UniProt P98170); assay: Counter Screen using XIAP-Bir3 for Chemical Antagonists of Bir1/2 domains of IAP-family anti-apoptotic proteins. [Related pubchem assays (depositor defined):AID1018, AID1449, AID1514, AID1638, AID1749, AID1750, AID488957, AID488963]
[21] = molecular target: T5, Carboxy-terminal domain RNA polymerase II polypeptide A small phosphatase 1 (Homo sapiens, UniProt Q9GZU7); assay: inhibitors of CTDSP1, concentration-response testing, biochemical assay, absorbance-based, actives from ultra-high-throughput screening (AID 540297); format: functional
T5 sequence (Q9GZU7 whole entry): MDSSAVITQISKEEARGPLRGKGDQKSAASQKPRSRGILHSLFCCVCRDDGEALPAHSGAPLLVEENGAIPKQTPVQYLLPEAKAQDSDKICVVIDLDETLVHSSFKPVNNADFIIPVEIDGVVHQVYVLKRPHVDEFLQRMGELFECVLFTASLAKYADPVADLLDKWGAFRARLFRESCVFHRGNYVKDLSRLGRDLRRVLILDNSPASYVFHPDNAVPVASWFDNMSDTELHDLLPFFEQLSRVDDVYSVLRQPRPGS

CN(C)c1ccc(/N=C2\C(=O)N(C)c3cccc4c(O)c5ccccc5c2c34)cc1
IC50 [1]: 10.6 µM (active)
IC50 (Protein Rev): 1.05 µM (active)
IC50 [2]: 0.868 µM (active)

CC(C)c1nnc(N2C(=O)c3oc4ccccc4c(=O)c3C2c2ccco2)s1 (stereo not given)
Absolute IC50 (XBP1) (X-box-binding protein 1): 10 µM

Cn1c(=O)c(C(=O)CN2CCCc3ccccc32)c(N)n(Cc2ccccc2)c1=O
IC50 (Coagulation factor XII): > 50 µM (inactive)

Cc1ccc(NC(=O)CCC(=O)N/N=C/c2ccccc2O)cc1
IC50 (HEK293 [3]): > 20 µM (inactive)
IC50 (HEK293 [4]): > 20 µM (inactive)
EC50 [5]: > 20 µM (inactive)
EC50 (HEK293 [6]): > 20 µM (inactive)
IC50 (HEK293 [7]): > 20 µM (inactive)
IC50 (HEK293 [8]): 14.7 µM (active)

CSC(SC)=C(C#N)C(=O)c1ccccc1
IC50 (Genome polyprotein): 84.6 µM (active)
Absolute IC50 (XBP1) (X-box-binding protein 1): 10 µM

O=C1Nc2ccccc2/C1=N\N=C\C1=C(N2CCOCC2)C(=C\c2ccccc2)/CC1
EC50 [9]: > 32 µM (inactive)
CC50 [10]: 28.2 µM (active)
EC50 [11]: 16 µM (active)
EC50 [12]: 14.2 µM (active)
IC50 (Nonstructural protein 1): 8.08 µM (active)

COc1ccc(/C=C/C(=O)c2cc3cccc(OC)c3oc2=O)cc1
IC50 (Perilipin-1/ABHD5): 3.34 µM (active)
IC50 [13]: 3.3 µM (active)

COc1ccc(C(=O)OCC(=O)Nc2ccc([N+](=O)[O-])cc2OC)c(O)c1
IC50 [14]: > 100 µM (inactive)
IC50 [15]: > 100 µM (inactive)

Cc1cc2c(cc1C)NC(c1c(C)n(C)n(-c3ccccc3)c1=O)C1=C(O)CC(C)(C)CC1=N2 (stereo not given)
IC50 (Bcl-2-like protein 10): > 1.56 µM (inactive)
EC50 [16]: 2.27 µM (active)
EC50 [17]: > 30 µM (not active)
EC50 [18]: > 53 µM (inactive)

COc1ccc(C2Nc3ccccc3C(=O)N2Cc2ccccc2)cc1COc1ccccn1 (stereo not given)
AC50 (CAAX prenyl protease 2): 5.83 µM (active)

CCOCC(=O)Nc1cc(-c2cn3cccnc3n2)ccc1C
AC50 (Cytochrome P450 2C9): 22.4 µM (inconclusive)
IC50 (Coagulation factor XII): > 50 µM (inactive)

Cc1ccccc1-n1cnc2cc(NCc3cccs3)ccc21
EC50 (Streptococcus): > 150 µM (not active)
EC50 (Streptokinase A): 87.8 µM (active)
EC50 [19]: 16.8 µM (active)
EC50 [9]: > 32 µM (inactive)
AC50 (Cytochrome P450 2C9): 39.8 µM (inconclusive)
AC50 (Cytochrome P450 2D6): 2.24 µM (inconclusive)
IC50 (Prothrombin): > 50 µM (not active)

Cc1ccccc1NC(=O)CN1C(=O)N/C(=C\c2ccccc2OCc2ccc(C(=O)O)cc2)C1=O
IC50 [20]: > 20 µM (inactive)
IC50 [21]: 4.3 µM (active)
IC50 [14]: 78.5 µM (active)
IC50 [15]: 7.28 µM (active)
